Laboratory results: patent US5128051A, “Method for the control of biofouling” (Union Carbide Chemicals & Plastics Technology Corporation, priority 1991, dated 1992)
Values after ≈ are worked out from the molar mass of the structure shown. Where two headings read alike, the source gives them in different places.

Legend:
[1] = test system: P. vulg.; conditions: planktonic; cited from earlier work
[2] = test system: P. aerug.; conditions: planktonic; cited from earlier work
[3] = Solubility in water; assay type: physicochemical; conditions: 25° C., read-out: limit of solubility in water
[4] = test system: Sessile Anaerobic Bacterial Biofilms (SRB); assay: Log reduction of sessile sulfate-reducing bacteria in biofilm on mild steel penicylinders (Example 3, Procedure B); assay type: cell-based; conditions: for log reduction at 10 ppm / log reduction at 25 ppm / log reduction at 50 ppm: 4 represents complete kill
Experimental: SRB-containing media were prepared as follows:
14.5 g of Bacto Sulfate API Broth (Difco Labs) and 2.0 g Bacto Agar (Difco Labs) were added to 1000 ml distilled water. The solution was heated and stirred until all components were dissolved. A 1% solution of sodium thioglycollate in distilled water was also prepared. Both solutions were then autoclaved at 121° C. for 30 minutes. After cooling, 5 g of the sodium thioglycollate solution was added to the media mixture.
Mild steel penicylinders (10 mm O.D., 7 mm I.D., 10 mm long) were cleaned by soaking for 10 minutes in 0.5% hydrochloric acid. Cylinders were then rinsed three times with distilled water and dried before use.
A 4 oz screw-capped bottle was purged with argon to remove oxygen, capped and then autoclaved. After cooling, 100 ml of sterile SRB media was added to this bottle. Cleaned penicylinders were then added along with 10 ml of a five day old SRB culture. All operations were conducted under a constant stream of argon to minimize oxygen levels. The bottle was then incubated for 7-14 days (depending on the SRB used) at 37° C. At that time, cylinders were individually removed aseptically using forceps and blotted on sterile filter paper.
Two biofilm-coated cylinders were then carefully dropped into separate 10 ml test tubes of deaerated biocide solutions of varying concentrations. All of the biocide and control solutions contained 30 ppm of a non-ionic nonyl phenol ethoxylate surfactant (TERGITOL® NP-4, Union Carbide Chemicals and Plastics Company Inc., Danbury, CT). After one hour and four hour contact times, a cylinder was removed, blotted on sterile filter paper, and placed into a commercially available SRB vial (C&S Laboratories, Tulsa, OK). The vial was then sonicated (Bransonic Model 12) for 30 seconds to remove sessile organisms. The resulting solution was serially diluted into additional SRB vials for enumeration. Vials were grown for 28 days at 37° C. before reading. Blackening of the vials was used as an indication of growth.
(§1) To minimize error, all biocide concentration/contact time points reported below were tested in duplicate and the results averaged. Results are reported as log reduction of microorganisms compared to control cylinders treated in the same manner except that no biocide was employed.
A SRB culture was obtained from a water-flooded oil well in Alaska. The bacteria were then cultivated on the walls of the steel penicylinders using Procedure B described above. Respective samples were then contacted with glutaraldehyde, formaldehyde or OPA for one and four hours with the following results: […]

[5] = test system: K. pneum.; conditions: planktonic; cited from earlier work
[6] = test system: C. albic.; conditions: planktonic; cited from earlier work
[7] = test system: Planktonic Anaerobic Bacteria (SRB); assay: Log reduction of planktonic sulfate-reducing bacteria (Example 4, Procedure C); assay type: cell-based
Experimental: A stock culture of the SRB to be tested was grown in a commercial SRB vial for 4 days at 37° C. The vial was then purged for approximately 30 seconds with argon to remove excess hydrogen sulfide. At that time a series of SRB vials were each inoculated with 0.1 ml of this stock culture. These vials were then incubated at 37° C. for 4 days. Each of these vials was then purged with argon. Appropriate stock solutions of biocide were prepared so that additions of 0.1-1.0 ml provided the desired concentration of biocide in each SRB vial. After 1 hour and 4 hour contact times, 1 ml aliquots were removed from each vial and were injected into fresh SRB vials. These vials were then serially diluted for enumeration.
as §1
The same sample of planktonic SRB as used in Example 3 was cultivated following above Procedure C. Respective samples of bacteria were treated with varying concentrations of OPA and the log reduction in the number of bacteria was recorded in each case.

[8] = test system: Aerobic Bacterial Biofilms; assay: Log reduction of sessile microorganisms in aerobic biofilm (Example 2, Procedure A); assay type: cell-based, predominantly Pseudomonas species; conditions: for log reduction at 50 ppm / log reduction at 100 ppm / log reduction at 200 ppm: Pseudomonas, 7.4 represents complete kill
Experimental: (§2) Approximately 20 ml of sterile Bacto TGE broth (Difco Labs) were placed in a sterile Petri dish (15×100 mm). To this media, 10 ml of a 24 hour culture of the aerobic organisms to be tested were added. Sterile, stainless steel penicylinders (10 mm O.D., 7 mm I.D., 10 mm long) were then placed in the inoculated media. The cylinders were placed in the dish either on-end or on-side. The Petri dish containing the cylinders was then incubated at 37° C. for 48 hours. At that time, cylinders were individually removed aseptically using forceps, blotted on sterile filter paper, and washed three times by dipping in sterile saline solution. This procedure was used to ensure that only organisms that were firmly attached in the biofilm were tested.
(§3) Two biofilm-coated cylinders were then carefully dropped into separate 10 ml test tubes containing biocide solutions of varying concentrations. After one hour and four hour contact times, a cylinder was aseptically transferred to a fresh tube of TGE broth and vortexed for 30 seconds to remove all sessile organisms. The resulting broth suspension was then serially diluted and plated using TGE agar for enumeration. Plates were incubated for 48 hours at 37° C. before counting.
as §1
Respective samples of the five compounds were tested against the sessile microorganisms embedded in biofilms. The biofilm was comprised of a variety of microorganisms, but contained predominantly Pseudomonas species cultivated using Procedure A. The number of organisms were counted after one hour and four hours of contact.

[9] = test system: Aerobic Bacterial Biofilms (oil field isolate); assay: Log reduction of sessile aerobic bacteria in biofilm on stainless steel penicylinders (Example 1, Procedure A); assay type: cell-based, predominantly Pseudomonas species; conditions: for log reduction at 5 ppm / log reduction at 10 ppm / log reduction at 25 ppm: Pseudomonas, 5.1 represents complete kill
Experimental: as §2, §3, §1
An oil field isolate of aerobic bacteria was utilized in all aerobic biofilm experiments. This culture was taken from a water-flooded oil well in Texas and was tentatively identified as containing predominantly Pseudomonas species. The biofilms were developed following above Procedure A. Respective samples were treated with various concentrations of the biocides listed below and the number of bacteria were counted after one hour and four hours of contact.

[10] = test system: S. aureus; conditions: planktonic; cited from earlier work
[11] = 1 hr contact, read-out: log reduction after 1 hr
[12] = 4 hr contact, read-out: log reduction after 4 hr

O=Cc1ccccc1C=O [OPA, ortho-phthalaldehyde]
MIC [1]: 0.25 mMole %
MIC [2]: 0.25 mMole %
solubility [3]: ~50 mg/mL (≈ 373000 µM)
log reduction at 10 ppm [4, 11]: 3
log reduction at 10 ppm [4, 12]: 4
log reduction at 25 ppm [4, 11]: 3
log reduction at 25 ppm [4, 12]: 4
log reduction at 50 ppm [4, 11]: 4
log reduction at 50 ppm [4, 12]: 4
MBC ([4]; Example 3, read-out: OPA concentrations at which a complete kill of sessile microorganisms occurred (as low as)): 10 to 50 µg/mL (≈ 74.6 to 373 µM)
MBC ([4]; within 4 hours, read-out: concentration that completely kills all sessile anaerobic organisms in the biofilm): 10 µg/mL (≈ 74.6 µM)
MIC [5]: 0.25 mMole %
MIC [6]: 0.25 mMole %
log reduction at 100 ppm ([7]; 1 hr contact, 4 represents complete kill, read-out: log reduction after 1 hr): 0
log reduction at 100 ppm ([7]; 4 hr contact, 4 represents complete kill, read-out: log reduction after 4 hr): 0
log reduction at 500 ppm ([7]; 500 ppm, 1 hr contact, 4 represents complete kill, read-out: log reduction after 1 hr): 2 to 3
log reduction at 250 ppm ([7]; 1 h, read-out: log reduction after 1 hr): 1
log reduction at 250 ppm ([7]; 4 h, read-out: log reduction after 4 hr): 1 to 2
MBC ([7]; Example 4, read-out: concentration for complete kill of planktonic SRB (not achieved at concentrations as high as)): > 500 µg/mL
log reduction at 50 ppm [8, 11]: 2.9
log reduction at 50 ppm [8, 12]: 7.4
log reduction at 100 ppm [8, 11]: 3.4
log reduction at 100 ppm [8, 12]: 7.4
log reduction at 200 ppm [8, 11]: 6
log reduction at 200 ppm [8, 12]: 7.4
effectiveness against sessile microorganisms in biofilms versus other aldehydes ([8]; other aldehydes at four times the concentration of OPA): surprising effectiveness
log reduction at 5 ppm [9, 11]: 0.8
log reduction at 5 ppm [9, 12]: 5.1
log reduction at 10 ppm [9, 11]: 1.4
log reduction at 10 ppm [9, 12]: 5.1
log reduction at 25 ppm [9, 11]: 5.1
log reduction at 25 ppm [9, 12]: 5.1
effectiveness versus glutaraldehyde and formaldehyde ([9]; aerobic biofilm, Example 1): outperformed both glutaraldehyde and formaldehyde
MIC [10]: 0.25 mMole %
